From ChEMBL document CHEMBL5352445, “Design and synthesis of functionalized 4-aryl-Catechol derivatives as new antiinflammtory agents with in vivo efficacy” (Eur J Med Chem, 2022)
The source made the active and inactive calls. The calls are words filed in the database; no cut-off is given here.

Legend:
[1] = Antioxidant activity assessed as quercetin equivalent of Ferric ion TPTZ reducing activity incubated for 6 mins by FRAP assay; assay type: functional
[2] = molecular target: T1, Polyunsaturated fatty acid 5-lipoxygenase (Homo sapiens, UniProt P09917); experiment: Inhibition of 5-lipoxygenase in human PMNL cells using arachidonic acid as substrate preincubated with compound for 15 mins followed by A23187 and substrate addition and measured after 10 mins by HPLC analysis; assay type: cell-based
T1 sequence (P09917 whole entry): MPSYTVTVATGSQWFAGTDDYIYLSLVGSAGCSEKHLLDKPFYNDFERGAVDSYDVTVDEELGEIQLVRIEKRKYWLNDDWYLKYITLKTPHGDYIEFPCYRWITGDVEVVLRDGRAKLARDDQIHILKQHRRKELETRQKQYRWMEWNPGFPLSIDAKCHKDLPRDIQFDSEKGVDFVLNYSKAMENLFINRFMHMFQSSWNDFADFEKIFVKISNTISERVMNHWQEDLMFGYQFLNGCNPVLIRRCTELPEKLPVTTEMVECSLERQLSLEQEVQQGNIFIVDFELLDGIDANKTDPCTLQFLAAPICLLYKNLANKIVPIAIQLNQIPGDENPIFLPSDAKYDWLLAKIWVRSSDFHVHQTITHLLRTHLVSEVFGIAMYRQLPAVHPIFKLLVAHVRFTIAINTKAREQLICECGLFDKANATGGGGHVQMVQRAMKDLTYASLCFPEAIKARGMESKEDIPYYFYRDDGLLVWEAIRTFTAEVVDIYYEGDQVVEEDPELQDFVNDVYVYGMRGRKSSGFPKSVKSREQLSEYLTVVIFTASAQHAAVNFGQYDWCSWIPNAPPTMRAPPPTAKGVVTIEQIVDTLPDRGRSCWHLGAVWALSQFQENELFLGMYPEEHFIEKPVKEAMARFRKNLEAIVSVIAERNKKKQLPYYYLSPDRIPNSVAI

[3] = Antioxidant activity assessed as DPPH radical scavenging activity by ultraviolet spectrophotometric analysis; assay type: functional
[4] = molecular target: T1, Polyunsaturated fatty acid 5-lipoxygenase; experiment: Inhibition of recombinant human 5-lipoxygenase expressed in Escherichia coli BL21 using arachidonic acid as substrate preincubated for 5 to 10 mins with compound followed by substrate addition and measured after 10 mins by HPLC analysis
[5] = molecular target: T2, Polyunsaturated fatty acid lipoxygenase ALOX12 (Homo sapiens) (UniProt P18054); experiment: Inhibition of 12-lipoxygenase in human PMNL cells using arachidonic acid as substrate assessed as residual activity at 10 uM preincubated with compound for 15 mins followed by A23187 and substrate addition and measured after 10 mins by HPLC analysis relative to control; assay type: cell-based; conditions: time 25.0 min
T2 sequence (whole entry): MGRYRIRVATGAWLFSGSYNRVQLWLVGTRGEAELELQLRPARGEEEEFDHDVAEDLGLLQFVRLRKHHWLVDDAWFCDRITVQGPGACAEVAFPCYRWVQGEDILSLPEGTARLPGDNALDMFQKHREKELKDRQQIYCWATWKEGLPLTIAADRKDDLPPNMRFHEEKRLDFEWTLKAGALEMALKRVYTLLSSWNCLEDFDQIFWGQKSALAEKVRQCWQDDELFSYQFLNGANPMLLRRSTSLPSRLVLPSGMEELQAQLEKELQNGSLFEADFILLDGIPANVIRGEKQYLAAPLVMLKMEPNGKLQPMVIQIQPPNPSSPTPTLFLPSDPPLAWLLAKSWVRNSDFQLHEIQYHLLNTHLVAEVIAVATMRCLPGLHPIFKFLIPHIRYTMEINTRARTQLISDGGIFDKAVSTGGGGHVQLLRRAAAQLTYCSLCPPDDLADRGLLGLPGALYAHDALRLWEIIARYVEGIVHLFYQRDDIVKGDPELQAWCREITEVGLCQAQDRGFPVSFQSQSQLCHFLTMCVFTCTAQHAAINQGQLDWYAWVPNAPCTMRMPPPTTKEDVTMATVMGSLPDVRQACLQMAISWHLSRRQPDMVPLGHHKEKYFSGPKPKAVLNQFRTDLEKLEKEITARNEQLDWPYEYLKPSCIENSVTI

[6] = molecular target: T3, Polyunsaturated fatty acid lipoxygenase ALOX15 (Homo sapiens) (UniProt P16050); experiment: Inhibition of 15-lipoxygenase in human PMNL cells using arachidonic acid as substrate assessed as residual activity at 10 uM preincubated with compound for 15 mins followed by A23187 and substrate addition and measured after 10 mins by HPLC analysis relative to control; assay type: cell-based; conditions: time 25.0 min
T3 sequence (whole entry): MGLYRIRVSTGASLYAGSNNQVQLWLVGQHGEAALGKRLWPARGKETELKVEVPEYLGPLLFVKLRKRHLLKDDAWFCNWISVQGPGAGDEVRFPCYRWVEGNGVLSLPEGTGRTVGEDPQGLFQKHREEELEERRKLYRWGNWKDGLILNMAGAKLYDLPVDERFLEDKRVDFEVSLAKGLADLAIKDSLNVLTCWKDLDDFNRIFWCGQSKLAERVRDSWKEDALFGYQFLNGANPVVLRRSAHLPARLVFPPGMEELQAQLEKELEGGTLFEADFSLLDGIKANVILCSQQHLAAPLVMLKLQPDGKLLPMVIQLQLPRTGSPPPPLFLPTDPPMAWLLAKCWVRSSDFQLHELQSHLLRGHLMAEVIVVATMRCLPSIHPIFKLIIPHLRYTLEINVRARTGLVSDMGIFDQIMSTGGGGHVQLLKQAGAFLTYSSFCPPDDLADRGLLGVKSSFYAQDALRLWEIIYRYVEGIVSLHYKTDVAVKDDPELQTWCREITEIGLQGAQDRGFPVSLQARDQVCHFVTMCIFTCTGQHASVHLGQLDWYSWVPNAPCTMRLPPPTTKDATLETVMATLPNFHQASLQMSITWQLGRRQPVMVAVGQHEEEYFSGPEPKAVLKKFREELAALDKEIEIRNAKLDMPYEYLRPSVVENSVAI

[7] = molecular target: T1, Polyunsaturated fatty acid 5-lipoxygenase; experiment: Inhibition of 5-LOX in human PMNL cells; assay type: cell-based
[8] = system: Mus musculus; experiment: Antiinflammatory activity against zymosan-induced air pouch mouse model assessed as inhibition of cell migration at 0.1 mg/kg, ip preadministered with compound for 30 mins followed by sterile air injection three days once for 6 days and measured 4 hrs after zymosan administration by optical microscopic analysis; assay type: functional, organism-based; conditions: time 148.5 hrs
[9] = system: Mus musculus; experiment: Anti-inflammatory activity against OVA-sensitized isolated perfused lung mouse model assessed as reduction in Ach-induced bronchoconstriction at 0.1 to 1 mg/kg, ip preadministered with compound for 30 mins followed by OVA challenge and measured 24 hrs after last aerosolized OVA challenge; assay type: functional, organism-based; conditions: dose 0.1-1 mg/kg, time 24.5 hrs
[10] = system: Mus musculus; experiment: Antiinflammatory activity in carrageenan induced mouse paw edema model assessed as reduction in hind paw swelling at 0.1 to 10 mg/kg, ip preadministered with compound for 30 mins followed by carrageenan administration and measured upto 72 hrs by hydroplethismometer; assay type: functional, organism-based; conditions: dose 0.1-10 mg/kg, time <= 72.5 hrs
[11] = molecular target: T2, Polyunsaturated fatty acid lipoxygenase ALOX12 (Homo sapiens); experiment: Inhibition of 12-lipoxygenase in human PMNL cells using arachidonic acid as substrate assessed as residual activity at 1 uM preincubated with compound for 15 mins followed by A23187 and substrate addition and measured after 10 mins by HPLC analysis relative to control; assay type: cell-based; conditions: time 25.0 min
[12] = molecular target: T3, Polyunsaturated fatty acid lipoxygenase ALOX15 (Homo sapiens); experiment: Inhibition of 15-lipoxygenase in human PMNL cells using arachidonic acid as substrate assessed as residual activity at 1 uM preincubated with compound for 15 mins followed by A23187 and substrate addition and measured after 10 mins by HPLC analysis relative to control; assay type: cell-based; conditions: time 25.0 min

| Compound | EC50 [1] [µM] | IC50 [2] [µM] | EC50 [3] [µM] | IC50 [4] [µM] | Activity [5] [%] | Activity [6] [%] | IC50 [7] [µM] | Activity [8] | Activity [9] | Activity [10] | Activity [11] [%] | Activity [12] [%] |
| --- | --- | --- | --- | --- | --- | --- | --- | --- | --- | --- | --- | --- |
| CCOc1ccc2ccccc2c1-c1ccc(O)c(O)c1 | 970 | 0.27 | 37 | 0.01 | 88.8 | 82.8 |  |  |  |  |  |  |
| Oc1ccc(-c2ccc3ccccc3c2)cc1O | 370 | 0.32 | 53 | 0.007 | 93.8 | 57.2 |  |  |  |  |  |  |
| Oc1ccc(-c2ccc(O)c(O)c2)cc1 | 650 | 1.33 | 275 | 0.21 | 75 | 80.8 |  |  |  |  |  |  |
| CCCCCCCCCCCCc1c(O)c(O)cc(OC)c1OC |  |  |  |  |  |  | 0.03 |  |  |  |  |  |
| Oc1ccc(-c2cccc3c2oc2ccccc23)cc1O | 3080 | 0.21 | 54 | 0.076 | 69.5 | 70.3 |  | Active | Active | Active |  |  |
| CC(c1cc2ccccc2s1)N(O)C(N)=O (stereo not drawn) |  |  |  |  |  |  |  |  | Active |  |  |  |
| CCCCCCCCCCCC1=C(O)C(=O)C=C(O)C1=O [EMBELIN] |  |  |  |  |  |  | 1.5 |  |  |  |  |  |
| Oc1ccc(-c2ccc3c(c2)OCCO3)cc1O | 70 | 0.24 | 71 | 0.04 | 89.6 | 84.8 |  |  |  |  | 74 |  |
| Oc1ccc(-c2cccc3c2Sc2ccccc2S3)cc1O |  | 0.23 |  | 0.008 |  |  |  |  |  |  |  |  |
| Oc1ccc(-c2cccc(Cl)c2)cc1O | 610 | 0.21 | 74 | 0.02 | 86.6 | 84.1 |  |  |  |  |  |  |
| O=C1C=C(O)C(=O)C(CC2CCC3CCCCC3C2)=C1O (stereo not drawn) |  |  |  |  |  |  | 10 |  |  |  |  |  |
| Oc1cc(O)c(O)c(CC2CCC3CCCCC3C2)c1O (stereo not drawn) |  |  |  |  |  |  | 4.4 |  |  |  |  |  |
| Oc1ccc(-c2ccccc2)cc1O | 190 | 0.47 | 46 | 0.05 | 86.1 | 112 |  |  |  |  |  |  |
| Oc1ccc(-c2c3ccccc3cc3ccccc23)cc1O | 890 | 2.34 | 51 | 0.01 | 49.4 |  |  |  |  |  |  | 114 |
| Oc1ccc(-c2cccc3c2sc2ccccc23)cc1O | 1380 | 0.25 | 82 | 0.007 | 71.5 | 70.5 |  |  |  |  |  |  |
| COC1=CC(=O)C(O)=C(C[C@]2(C)CC[C@@]3(C)C(C)=CCC[C@@H]3[C@@H]2C)C1=O |  |  |  |  |  |  | 10 |  |  |  |  |  |
| Oc1ccc(-c2ccc(Cl)cc2)cc1O | 560 | 0.26 | 64 | 0.02 | 74.9 | 91.4 |  |  |  |  |  |  |
| Oc1ccc(-c2cc3ccccc3o2)cc1O | 460 | 1.11 | 49 | 0.03 | 80.6 | 71.1 |  |  |  |  |  |  |
